Test system: primary CLL cells
Test: Leukemia cell viability and apoptosis by DiOC6(3)/PI staining and flow cytometry
Format: cell-based, human
Method: Cell viability and apoptosis were evaluated by double-staining with the mitochondrial inner transmembrane potential (ΔΨm)-sensitive dye DiOC6(3) (3,3'-dihexyloxacarbocyanine iodide; Sigma-Aldrich) and the exclusion dye propidium iodide (PI; Immunostep), allowing identification of apoptotic [DiOC6(3)^low PI^-] and dead [PI^+] cells as per Proc. Natl. Acad. Sci. U.S.A. (2014) 111(8):3020-3025 and Methods Mol. Biol. (2016) 1419:1-16. Briefly, PBMCs were resuspended in culture medium containing 20 nM DiOC6(3) and incubated for 30 minutes at 37 °C. Then, PI (1 µg/mL) was added and cells were further incubated for 10 minutes at room temperature (RT). Cells were analyzed by flow cytometry considering DiOC6(3)^+PI^- cells as viable. In some experiments, apoptosis was evaluated by staining with Annexin V/PI. Thus, PBMCs were incubated in Annexin V binding buffer containing 5 µg/mL Annexin V-FITC (Biolegend) for 15 minutes at RT and PI (1 µg/mL) was subsequently added. Data were normalized to the untreated control as a percentage. Only samples with at least 60% of viable cells (DiOC6(3)^+; Annexin V^-) in the control (DMSO) condition were employed in this study.
The in vitro cytotoxic activity of EC-7072 against primary CLL cells was assessed by: • (i) incubating PBMCs isolated from patients with CLL (n = 13) following treatment with increasing concentrations of EC-7072 (0 - 400 nM) for 24 hours. Numbers of leukemia cells were evaluated by flow cytometry and normalized to their respective control (DMSO) condition for each individual patient to obtain percentage of leukemia cells (Figure 1A); • (ii) incubating PBMCs from patients with CLL (n = 10) with or without EC-7072 (100-400 nM) for 24 hours. Viability of leukemia cells was determined by cytofluorometric assessment of DiOC6(3)/PI staining and normalized to their respective control condition to obtain percentage viability (Figure 1B); • (iii) incubating PBMCs from patients with CLL (n = 10) with increasing concentrations of EC-7072 (0 - 400 nM) for 24 hours. Apoptosis of leukemia cells was determined by DiOC6(3)/PI staining and flow cytometry to obtain the mean percentages of apoptotic [DiOC6(3)^low PI^-] and dead [PI^+] cells (Figure 1C); • (iv) incubating PBMCs from patients with CLL (n = 10) with or without EC-7072 (200 nM) for 12 to 72 hours. Viability of leukemia cells was determined by DiOC6(3)/PI staining and normalized to their respective control condition to obtain percentage viability (Figure 1D); • (v) incubating PBMCs from patients with CLL (n = 24) with MTA (200 nM) or EC-7072 (200 nM) for 24 hours. Leukemia cell death was determined by DiOC6(3)/PI staining and flow cytometry to obtain the mean percentages of apoptotic [DiOC6(3)^low PI^-] and dead [PI^+] cells (Figure 1E); • (vi) incubating PBMCs from patients with CLL (n = 63) or healthy donors (n = 20) with or without EC-7072 (200 nM) for 24 hours. Viability of leukemia cells and healthy B cells was evaluated by DiOC6(3)/PI staining and normalized to their respective control condition to obtain percentage viability (Figure 1F); • (vii) incubating PBMCs from patients with CLL (n = 62) following treatment with EC-7072 (200 nM) for 24 hours and obtaining a cytogenetic profile for each patient. Viability of leukemia cells was evaluated by DiOC6(3)/PI staining and normalized to their respective control (DMSO) condition for each individual patient to obtain the percentage of viable [DiOC6(3)^+] cells (Figure 1G); • (viii) incubating PBMCs from patients with CLL (n = 59) following treatment with EC-7072 (200 nM) for 24 hours and determining mutational status of IgHV for each patient. Viability of leukemia cells was evaluated by DiOC6(3)/PI staining and normalized to their respective control (DMSO) condition for each individual patient to obtain the percentage of viable [DiOC6(3)^+] cells (Figure 1H). […]

CO[C@@H]([C@@H]1Cc2cc3cc(O[C@H]4C[C@@H](O[C@H]5C[C@@H](O)[C@H](O)[C@@H](C)O5)[C@H](O)[C@@H](C)O4)c(C)c(O)c3c(O)c2C(=O)[C@H]1O[C@H]1C[C@@H](O[C@H]2C[C@@H](O[C@H]3C[C@](C)(O)[C@H](O)[C@@H](C)O3)[C@@H](O)[C@@H](C)O2)[C@H](O)[C@@H](C)O1)[C@@H](O)C(C)=O [EC-7072, mithramycin SK]
cell death at 6 hours (200 nM, 6 hours, PBMCs from patients with CLL (n = 8), Figure 6C): not triggering detectable cell death | CLL cell death at 8 hours (200 nM, 8 hours, n = 8, Figure 7K): does not result in noticeable CLL cell death | ratio of apoptosis in CLL cells relative to CLL cell death (200 nM, 24 hours, PBMCs from patients with CLL (n = 6), exception: EC-14041, Figure 2P): higher ratio of apoptosis in CLL cells relative to CLL cell death than other mithralogs | antileukemic activity (apoptotic [DiOC6(3)^low PI^-] and dead [PI^+] cells) (200 nM, 24 hours, PBMCs from patients with CLL (n = 24), compared with MTA 200 nM, Figure 1E): comparable to that of MTA | antileukemic activity on isolated leukemia cells versus PBMCs (apoptotic and dead cells) (200 nM, 24 hours, isolated leukemia cells from patients with CLL (n = 24)): mimicked | viability of leukemia cells by mutational status of IgHV (200 nM, 24 hours, n = 59, Figure 1H): did not significantly affect the sensitivity | viability of leukemia cells by cytogenetic profile (200 nM, 24 hours, n = 62, patients with cytogenetic aberrations incl. del(17p) or del(11q), Figure 1G): no differences in the sensitivity | viability of leukemia cells (100 - 400 nM for 24 hours, 200 nM for 12 to 72 hours, PBMCs from patients with CLL (n = 10), dose- and time-dependent, Figures 1B-1D): significantly decreased | leukemia cell survival upon BCR stimulation with anti-IgM antibodies (EC-7072 200 nM in combination with α-IgM (10 µg/mL), 24 hours, n = 15): significantly rescued leukemia cell survival | leukemia cell death in the presence of microenvironment-derived soluble factors (EC-7072 200 nM with CD40L (100 ng/mL), BAFF (50 ng/mL), TNF-α (40 ng/mL), IL-6 (40 ng/mL) or IL-4 (40 ng/mL), 24 hours, n = 7): none of the soluble factors tested significantly affected the leukemia cell death | leukemia cell viability in co-culture with OP9 stromal cells (co-culture with OP9 cells 72 hours, EC-7072 200 nM for the last 24 hours, n = 7): did not enhance leukemia cell viability | percentage viability of leukemia cells, comparison of mithralogs (each at 200 nM, 24 hours, PBMCs from patients with CLL (n = 10), Figure 2M): second only to the mithralog EC-7073 | CLL cell viability compared with idelalisib or fludarabine (range of doses, EC-7072 and fludarabine 24 hours, idelalisib 48 hours, n = 4 - 6, Figure 4A): reduced CLL cell viability to a greater extent than idelalisib or fludarabine

From patent EP3797781A1, “USE OF EC-7072 AND SYNERGIC COMPOSITIONS THEREOF IN TREATMENT OF CHRONIC LYMPHOCYTIC LEUKEMIA” (priority 2019, dated 2021)
